# Assay results as given in patent EP0606463B1, “NEUROMEDIN B RECEPTOR ANTAGONISTS” (The Administrators of The Tulane Educational Fund, priority 1992, dated 1994).
# Where a SMILES comes first, the peptide text is derived from it. Bridges are numbered along the chain shown (N, C = ends). [ ]: non-standard residue; d: D form. 2Nal = N[C@@H](Cc1ccc2ccccc2c1)C(=O)O; d2Nal = N[C@H](Cc1ccc2ccccc2c1)C(=O)O
# Key:
# [1] = molecular target: T1, rat NMB receptor (Rattus norvegicus, UniProt P24053); experiment: Binding of 125I-[D-Tyr0]NMB to NMB-R transfected BALB 3T3 cells; details: for fold greater affinity for the NMB than the GRP receptors: NMB-R transfected cells versus GRP receptors on rat pancreatic acini
# T1 construct: a full length NMB-preferring bombesin receptor clone generated from rat esophagus; expressed in transfected cells; host or cells: BALB 3T3 cells
# T1 sequence (P24053 1-390): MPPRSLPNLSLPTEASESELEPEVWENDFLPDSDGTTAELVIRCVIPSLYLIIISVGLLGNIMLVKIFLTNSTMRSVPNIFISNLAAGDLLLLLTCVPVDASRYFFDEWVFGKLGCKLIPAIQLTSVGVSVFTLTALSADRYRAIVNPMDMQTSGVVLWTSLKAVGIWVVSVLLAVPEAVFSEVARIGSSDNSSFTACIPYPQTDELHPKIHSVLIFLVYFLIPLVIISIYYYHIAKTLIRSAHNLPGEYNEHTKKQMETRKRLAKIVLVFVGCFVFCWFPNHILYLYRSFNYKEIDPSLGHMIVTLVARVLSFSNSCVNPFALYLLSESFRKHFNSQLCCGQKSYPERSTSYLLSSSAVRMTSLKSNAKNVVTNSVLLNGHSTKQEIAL
# [2] = molecular target: T2, GRP Receptor (Rattus norvegicus, UniProt P52500); experiment: Amylase release from rat pancreatic acini; type: cell-based
# T2 construct: from tissue; host or cells: dispersed pancreatic acini
# T2 sequence (P52500 whole entry): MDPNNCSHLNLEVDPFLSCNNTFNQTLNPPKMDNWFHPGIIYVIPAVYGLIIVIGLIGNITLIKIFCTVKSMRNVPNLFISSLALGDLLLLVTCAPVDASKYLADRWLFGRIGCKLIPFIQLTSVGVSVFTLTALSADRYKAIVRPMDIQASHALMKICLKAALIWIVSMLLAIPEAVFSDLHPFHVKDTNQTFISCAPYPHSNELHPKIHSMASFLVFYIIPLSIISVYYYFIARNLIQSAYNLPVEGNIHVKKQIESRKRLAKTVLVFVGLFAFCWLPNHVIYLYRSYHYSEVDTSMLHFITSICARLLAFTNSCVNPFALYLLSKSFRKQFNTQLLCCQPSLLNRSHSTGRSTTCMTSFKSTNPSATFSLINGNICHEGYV
# [3] = molecular target: T3, NMB receptors on C-6 glioblastoma cells (Rattus norvegicus, UniProt P24053); experiment: NMB-stimulated [3H]IP in C-6 glioblastoma cells; type: cell-based
# T3 construct: endogenous in cells; host or cells: rat glioblastoma C-6 cells
# T3 sequence (P24053 1-390): T1 sequence (P24053 1-390)
# Protocol: Total phosphoinositides in C-6 cells and in NMB-R transfected cells were determined as described previously, with minor modifications [Benya, R. V. et al. Mol. Pharmacol. 42:1058 (1992); and Wang, L-H. et al. Biochem. J. 286:641 (1992)]. Cells were grown to confluence in 24-well plates and then loaded with 100 µCi/ml myo-[2-^3H]inositol in Dulbecco's modified essential medium with 2% fetal bovine serum at 37°C for 48 hrs. Cells were washed and incubated in phosphoinositide buffer (standard buffer additionally containing 10 mM LiCl, 20 mM HEPES, 2 mM CaCl2, 2% BSA, and 1.2 mM MgSO4) for 15 min and then […] Reactions were halted using ice-cold 1% HCl in methanol, and the inositol phosphates (IP) were isolated as described previously [Bologna, M. et al. Cancer 63:1714 (1989); and Endo, T. et al. J. Endocrinol. 131:313 (1991)]. Briefly, after loading of the anion exchange column, free [^3H]glycerophosphorylinositol was removed by washing with 5 mM disodium tetraborate in 60 mM sodium formate. Total [^3H]inositol phosphates were then eluted using 100 mM formic acid in 1.0 M ammonium formate as described previously [Benya, R. V. et al. Mol. Pharmacol. 42:1058 (1992); and Wang, L-H. et al. Biochem. J. 286:641 (1992)].
# [4] = tested on: endothelin-1-simulated increases in [^3H]IP; experiment: Endothelin-1-stimulated [3H]IP in C-6 glioblastoma cells; type: cell-based, rat; details: for effect on endothelin-1-simulated increases in [^3H]IP in C-6 cells: Table 3
# Protocol: Total phosphoinositides in C-6 cells and in NMB-R transfected cells were determined as described previously, with minor modifications [Benya, R. V. et al. Mol. Pharmacol. 42:1058 (1992); and Wang, L-H. et al. Biochem. J. 286:641 (1992)]. Cells were grown to confluence in 24-well plates and then loaded with 100 µCi/ml myo-[2-^3H]inositol in Dulbecco's modified essential medium with 2% fetal bovine serum at 37°C for 48 hrs. Cells were washed and incubated in phosphoinositide buffer (standard buffer additionally containing 10 mM LiCl, 20 mM HEPES, 2 mM CaCl2, 2% BSA, and 1.2 mM MgSO4) for 15 min and then for 60 min at 37°C with agonists at various concentrations or with 3 nM NMB (a half-maximal effective concentration) and possible antagonists at different concentrations. Reactions were halted using ice-cold 1% HCl in methanol, and the inositol phosphates (IP) were isolated as described previously [Bologna, M. et al. Cancer 63:1714 (1989); and Endo, T. et al. J. Endocrinol. 131:313 (1991)]. Briefly, after loading of the anion exchange column, free [^3H]glycerophosphorylinositol was removed by washing with 5 mM disodium tetraborate in 60 mM sodium formate. Total [^3H]inositol phosphates were then eluted using 100 mM formic acid in 1.0 M ammonium formate as described previously [Benya, R. V. et al. Mol. Pharmacol. 42:1058 (1992); and Wang, L-H. et al. Biochem. J. 286:641 (1992)].
# [5] = tested on: bradykinin1; experiment: Bradykinin membrane receptor assay; type: binding; details: at 1 µM
# [6] = tested on: α1- adrenergic; experiment: alpha1-adrenergic membrane receptor assay; type: binding, rat; details: at 1 µM
# [7] = tested on: α2- adrenergic; experiment: alpha2-adrenergic membrane receptor assay; type: binding, rat; details: at 1 µM
# [8] = molecular target: T4, dopamine2 (Rattus norvegicus, UniProt P61169); experiment: dopamine2 membrane receptor assay; type: binding; details: at 1 µM
# T4 construct: rat corpus striatum (dopamine1 and dopamine2 membrane receptor assays); from tissue; host or cells: rat corpus striatum membranes
# T4 sequence (P61169 whole entry): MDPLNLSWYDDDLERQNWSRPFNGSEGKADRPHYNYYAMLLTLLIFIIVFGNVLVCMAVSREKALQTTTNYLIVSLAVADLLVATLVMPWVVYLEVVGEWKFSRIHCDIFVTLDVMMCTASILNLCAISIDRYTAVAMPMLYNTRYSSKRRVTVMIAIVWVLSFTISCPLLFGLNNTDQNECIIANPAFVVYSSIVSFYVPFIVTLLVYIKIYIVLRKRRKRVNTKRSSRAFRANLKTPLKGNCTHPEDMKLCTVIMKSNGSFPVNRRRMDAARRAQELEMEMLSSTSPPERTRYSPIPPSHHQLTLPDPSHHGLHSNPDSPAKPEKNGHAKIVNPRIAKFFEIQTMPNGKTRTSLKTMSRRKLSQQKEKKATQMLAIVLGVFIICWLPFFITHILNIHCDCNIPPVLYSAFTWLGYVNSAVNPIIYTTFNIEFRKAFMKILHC
# [9] = molecular target: T5, adenosine1 (Rattus norvegicus, UniProt P25099); experiment: Adenosine membrane receptor assay; type: binding; details: at 1 µM
# T5 construct: rat cerebral cortex (CCKB, PYY, neurotensin, ∝1-adrenergic, ∝2-adrenergic, muscarinic cholinergic, neural benzodiazepine, peripheral benzodiazepine, adenosine); from tissue; host or cells: rat cerebral cortex membranes
# T5 sequence (P25099 whole entry): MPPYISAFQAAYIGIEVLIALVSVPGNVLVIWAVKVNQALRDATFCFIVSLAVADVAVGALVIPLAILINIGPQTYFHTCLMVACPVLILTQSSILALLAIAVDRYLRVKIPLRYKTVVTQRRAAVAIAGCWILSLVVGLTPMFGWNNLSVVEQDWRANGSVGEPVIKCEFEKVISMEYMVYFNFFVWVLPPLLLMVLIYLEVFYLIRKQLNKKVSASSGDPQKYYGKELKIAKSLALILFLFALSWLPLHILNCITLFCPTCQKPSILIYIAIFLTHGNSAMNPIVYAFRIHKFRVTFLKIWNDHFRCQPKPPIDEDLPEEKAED
# [10] = molecular target: T6, sigma opioid receptor (Cavia porcellus, UniProt Q60492); experiment: sigma opioid membrane receptor assay; type: binding, guinea pig; details: at 1 µM
# T6 construct: guinea pig cerebral (N1, histamine H1, and sigma opioid membrane receptor assays); from tissue; host or cells: guinea pig cerebral membranes
# T6 sequence (Q60492 whole entry): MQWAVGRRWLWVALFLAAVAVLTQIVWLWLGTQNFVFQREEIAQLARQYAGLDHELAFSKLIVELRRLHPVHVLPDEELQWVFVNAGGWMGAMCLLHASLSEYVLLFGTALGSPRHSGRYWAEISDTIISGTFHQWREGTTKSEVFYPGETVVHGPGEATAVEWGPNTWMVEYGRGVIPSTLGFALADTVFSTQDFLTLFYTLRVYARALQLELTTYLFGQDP
# [11] = molecular target: T7, delta opioid (Rattus norvegicus, UniProt P33533); experiment: delta opioid membrane assay; type: binding; details: at 1 µM
# T7 construct: rat forebrain (TRH, mu and delta opioid membrane assays); from tissue; host or cells: rat forebrain membranes
# T7 sequence (P33533 whole entry): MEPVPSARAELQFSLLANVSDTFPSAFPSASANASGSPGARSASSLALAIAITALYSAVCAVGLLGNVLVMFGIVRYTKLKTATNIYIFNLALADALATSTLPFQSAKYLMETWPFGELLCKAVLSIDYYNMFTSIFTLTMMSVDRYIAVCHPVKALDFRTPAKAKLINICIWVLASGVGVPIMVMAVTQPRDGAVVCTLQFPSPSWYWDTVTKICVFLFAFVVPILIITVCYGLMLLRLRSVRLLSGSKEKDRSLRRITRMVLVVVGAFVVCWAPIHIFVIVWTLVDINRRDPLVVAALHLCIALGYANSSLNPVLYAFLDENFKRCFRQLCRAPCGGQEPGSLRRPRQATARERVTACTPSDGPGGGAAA
smiles,measurement,setting,value
"CC(C)[C@@H]1NC(=O)[C@H](CCCCN)NC(=O)[C@@H](Cc2c[nH]c3ccccc23)NC(=O)[C@H](Cc2ccc(O)cc2)NC(=O)[C@@H](NC(=O)[C@H](N)Cc2ccc3ccccc3c2)CSSC[C@@H](C(=O)N[C@@H](Cc2ccc3ccccc3c2)C(N)=O)NC1=O [Analog #1, D-Nal-Cys-Tyr-D-Trp-Lys-Val-Cys-Nal-NH2] (H-[d2Nal]CY[dW]KVC[2Nal]-NH2; disulfide 2-7; N-terminus assumed)",complete inhibition of binding of ^125I-[Tyr^0]NMB at,[1]; NMB-R transfected cells,3 µM
same,fold greater affinity for the NMB than the GRP receptors,[1],84 fold
same,fold greater affinity for the NMB than the GRP receptors,[1]; listed as cyclo SS-octa,100 fold
same,detectible inhibition of binding of ^125I-[Tyr^0]NMB at,"[1]; NMB-R transfected cells, lowest concentration with detectable inhibition",0.1 µM
same,Rat Pancreatic Acini Amylase Release Alone (10µM),"[2]; analog 10 µM alone, no-additive control 4 ± 1",5 ± 1 % total
same,Rat Pancreatic Acini Amylase Release Plus Bn(0.3 nM),"[2]; analog 10 µM plus Bn 0.3 nM, Bn without analog 15 ± 1",15 ± 2 % total
same,effect on Bn-stimulated amylase release,"[2]; rat pancreatic acini, Bn 0.3 nM, peptide 10 µM",did not inhibit
same,"[^3H]IP, Peptide Added NMB (10 nM)","[3]; C-6 glioblastoma cells, analog 10 µM plus NMB 10 nM",7.5 ± 1.0 dpm x 10^3
same,"[^3H]IP, Peptide Added None","[3]; C-6 glioblastoma cells, analog 10 µM, no agonist, control 7.2±1.0",7.4 ± 1.3 dpm x 10^3
same,effect on NMB-stimulated increases in [^3H]IP in C-6 glioblastoma cells,[3]; Table 3,inhibited
same,"[^3H]IP, Peptide Added ET-1 (0.1 nM)","[4]; C-6 glioblastoma cells, analog 10 µM plus ET-1 0.1 nM",10.9 ± 1.8 dpm x 10^3
same,effect on endothelin-1-simulated increases in [^3H]IP in C-6 cells,[4],had no effect
same,effect on endothelin-1-simulated increases in [^3H]IP in C-6 cells,[4]; listed as Cycle SS-octa,did not inhibit
same,inhibition of binding to bradykinin1,[5],did not inhibit binding
same,inhibition of binding to α1- adrenergic,[6],did not inhibit binding
same,inhibition of binding to α2- adrenergic,[7],did not inhibit binding
same,inhibition of binding to dopamine2,[8],did not inhibit binding
same,inhibition of binding to adenosine1,[9],did not inhibit binding
same,inhibition of binding to sigma opioid,[10],did not inhibit binding
same,inhibition of binding to delta opioid,[11],did not inhibit binding
